Results published in ChEMBL document CHEMBL3832043, “DailyMed|setid=ef14e332-51ac-ea97-3542-9bc92557dbed | PROPOFOL- propofol injection, emulsion|APP Pharmaceuticals, LLC”.

Legend:
[1] = Pharmacokinetic parameters of Propofol following intravenous administration in subjects.; conditions: human, in vivo
[2] = Pharmacokinetic parameters for Propofol following multiple intravenous administration in subjects.; conditions: human, in vivo

CC(C)c1cccc(C(C)C)c1O [PROPOFOL]
clearance [1]: 1.38 to 3 L/h/kg | half-life [2]: 24 to 72 h
